Test results published in ChEMBL document CHEMBL1944566, “Conjugation of cell-penetrating peptides leads to identification of anti-HIV peptides from matrix proteins” (Bioorg Med Chem, 2012).
Activity calls are given as the source filed them. No cut-off for these calls is given here. Where a SMILES comes first, the peptide text is derived from it. The star is where a group is joined. Cam = NC(=O)C*

Legend:
[1] = system: Human immunodeficiency virus 1; experiment: Antiviral activity against X4 tropic HIV1 NL4-3 in MT4 cells assessed as protection from virus-induced cytopathogenicity after 5 days by MTT assay; format: functional, organism-based; conditions: Human immunodeficiency virus 1, NL4-3, MT4, 120 h
[2] = system: Human immunodeficiency virus 1; experiment: Antiviral activity against R5 tropic HIV1 JR-CSF in PM1/CCR5 cells assessed as protection from virus-induced cytopathogenicity measuring capsid p24 level after 5 days by ELISA; format: functional, cell-based; conditions: Human immunodeficiency virus 1, JRCSF ISOLATE, PM1/CCR5, 120 h
[3] = Cytotoxicity against human MT4 cells after 5 days by MTT assay; format: cell-based
[4] = system: Human immunodeficiency virus 1; experiment: Antiviral activity against R5 tropic HIV1 NL(AD8) in PM1/CCR5 cells assessed as protection from virus-induced cytopathogenicity after 5 days by MTT assay; format: functional, organism-based; conditions: Human immunodeficiency virus 1, NL(AD8), PM1/CCR5, 120 h
[5] = Aqueous solubility of the compound; format: physicochemical; conditions: buffer
[6] = system: Human immunodeficiency virus 1; experiment: Antiviral activity against R5 tropic HIV1 JR-CSF in PM1/CCR5 cells assessed as protection from virus-induced cytopathogenicity measuring capsid p24 level at 50 uM after 5 days by ELISA; format: functional; conditions: Human immunodeficiency virus 1, JRCSF ISOLATE, PM1/CCR5, 120 h
[7] = system: Human immunodeficiency virus 1; experiment: Antiviral activity against R5 tropic HIV1 NL(AD8) in PM1/CCR5 cells assessed as protection from virus-induced cytopathogenicity at 6.25 uM after 5 days by MTT assay; format: functional; conditions: Human immunodeficiency virus 1, NL(AD8), PM1/CCR5, 120 h
[8] = system: Human immunodeficiency virus 1; experiment: Antiviral activity against X4 tropic HIV1 NL4-3 in MT4 cells assessed as protection from virus-induced cytopathogenicity at 3.13 uM after 5 days by MTT assay; format: functional, organism-based

Compound | EC50 [1] [µM] | EC50 [2] [µM] | CC50 at 120 h [3] [µM] | EC50 [4] [µM] | solubility [5] | inhibition at 50 µM [6] [%] | inhibition at 6.25 µM [7] [%] | inhibition [8]
CC[C@H](C)[C@H](NC(=O)[C@H](CCCNC(=N)N)NC(=O)[C@H](CCC(N)=O)NC(=O)[C@H](Cc1cnc[nH]1)NC(=O)[C@@H](NC(=O)[C@H](CO)NC(=O)[C@H](Cc1ccc(O)cc1)NC(=O)[C@H](CC(C)C)NC(=O)[C@@H](NC(=O)[C@H](C)NC(=O)[C@@H](NC(=O)[C@@H](NC(C)=O)[C@@H](C)O)[C@@H](C)CC)C(C)C)C(C)C)C(=O)N[C@@H](CC(=O)O)C(=O)N[C@H](C(=O)N[C@@H](CCCCN)C(=O)NCC(=O)N[C@@H](CSCC(N)=O)C(N)=O)C(C)C (Ac-TIAVLYSVHQRIDVKGC(Cam)-NH2) | 29 | 8.1 | > 50 | 13 | Insoluble |  |  | 
CC[C@H](C)[C@H](NC(=O)[C@H](CCC(N)=O)NC(=O)[C@H](CCCNC(=N)N)NC(=O)[C@H](CO)NC(=O)CNC(=O)[C@H](CCC(=O)O)NC(=O)[C@H](CO)NC(=O)[C@@H](NC(=O)[C@H](CCC(=O)O)NC(=O)[C@H](CC(C)C)NC(C)=O)[C@@H](C)O)C(=O)N[C@@H](CC(C)C)C(=O)NCC(=O)N[C@@H](CCC(N)=O)C(=O)N[C@@H](CC(C)C)C(=O)N[C@@H](CCC(N)=O)C(=O)NCC(=O)N[C@@H](CSCC(N)=O)C(N)=O (Ac-LETSEGSRQILGQLQGC(Cam)-NH2) | 37 |  | > 50 |  |  | 25 | 24 | 
CC[C@H](C)[C@H](NC(=O)[C@H](Cc1cnc[nH]1)NC(=O)[C@H](CCCCN)NC(=O)[C@H](CC(C)C)NC(C)=O)C(=O)N[C@H](C(=O)N[C@@H](Cc1c[nH]c2ccccc12)C(=O)N[C@@H](C)C(=O)N[C@@H](CO)C(=O)N[C@@H](CCCNC(=N)N)C(=O)N[C@@H](CCC(=O)O)C(=O)N[C@@H](CC(C)C)C(=O)N[C@@H](CCC(=O)O)C(=O)N[C@@H](CCCNC(=N)N)C(=O)N[C@@H](Cc1ccccc1)C(=O)N[C@@H](C)C(=O)NCC(=O)N[C@@H](CSCC(=O)N[C@@H](CCCNC(=N)N)C(=O)N[C@@H](CCCNC(=N)N)C(=O)N[C@@H](CCCNC(=N)N)C(=O)N[C@@H](CCCNC(=N)N)C(=O)N[C@@H](CCCNC(=N)N)C(=O)N[C@@H](CCCNC(=N)N)C(=O)N[C@@H](CCCNC(=N)N)C(=O)N[C@@H](CCCNC(=N)N)C(N)=O)C(N)=O)C(C)C |  |  | 3.7 |  |  |  |  | inactive
